Residues, ends and D or L forms follow the SMILES beside them. No end group written: not given here.
Key:
Sap2 [1] = target: T1, Sap2 (Candida albicans, UniProt P0DJ06); conditions: 6.25 μg mL^−1 Sap2
Description: (§1) The cleavage sites of the Saps and the abundance of the fragments produced by cleavage were determined using mass spectrometry. […] The binding solution was 0.1% formic acid, and the releasing solution was 0.1% formic acid/60% acetonitrile (ACN). To ensure equal flow-through volume of each sample, 18 μL of desalted sample was aliquoted and 1 μL of the four-amino acid peptide MRFA at 0.1 mg mL^−1 was added. Samples were manually loaded through loop injection at 25 μL min^−1 with 40% ACN/0.1% formic acid. Mass spectra were acquired with a Thermo Scientific Orbitrap Fusion Lumos Tribrid mass spectrometer with data-dependent analysis at a 5 s cycle time. Manufacturer recommended source parameters for a flow rate of 25 μL min^−1 were applied. Full scan mass spectra of m z^−1 350-1550 were acquired in the orbitrap at R=120000 (m z^−1 200) with fluoranthene ion as the internal calibrant. CID and ETD fragments of the most intense ions (z>1) were recorded with the orbitrap at R=60000 (m z^−1 200). Dynamic exclusion was set at 30 s.
(§2) The molecular weights of the peptides and their fragments were calculated from full scan MS spectra using the XTract program in the XCalibur software (Thermo Scientific). MS/MS spectra from ETD and CID fragmentation were processed using Proteome Discoverer (V2.1) with Prosight PD node to identify peptides and their degradation products. […] Intensities of identified peptides and their degradation products relative to the internal standard MRFA were obtained from the deconvoluted full scan mass spectra.
(§3) After incubation of the peptides with each Sap, the four-amino-acid peptide MRFA was added as an internal standard, and samples were directly injected into the mass spectrometer.

Sap9 [2] = target: T2, Sap9 (Candida albicans, UniProt Q59SU1); conditions: 3.13 μg mL^−1 Sap9
Description: as §1, §2, §3

Sap2 [3] = target: T1, Sap2; assay: in vitro; conditions: 2 h, 37° C.; for degradation by Sap2 (in words): 6.25 μg mL^−1 Sap2, 150 μg mL^−1 peptide; for intact peptide remaining after incubation with higher Sap2 concentration: 18 μg mL^−1 Sap2, 150 μg mL^−1 peptide
Description: (§4) Experiments were done in 1 mM NaPB. The mixtures were incubated at 37° C. for 2 h, and NaPB with no Sap was used as a control. After the incubation, the samples were mixed with tricine sample buffer (without Coomassie Blue G-250, except in control samples) containing β-mercaptoethanol and boiled for 5 min at 100° C. to inactivate the proteases. The degraded and non-degraded peptides were separated by gel electrophoresis in 10-20% Tris-tricine gels (Bio-Rad), and the gels were then fixed in a 10% acetic acid/40% methanol/50% water mixture for 30 min. The fixed gels were stained with Bio-Safe Coomassie stain (Bio-Rad) for 1 h and washed with fresh water three times, once overnight and then twice for at least 2 h each time. The gels were imaged on a Chemidoc imager (Bio-Rad), and densitometric analysis was done with Image Lab software (Bio-Rad). […] Three replicates of the assay were done.
(§5) To measure the antifungal activity of the peptides following degradation by the Saps, the antifungal activity assay was performed as described above, except the peptides were first exposed to Saps. The peptide fragments were prepared by incubating each peptide (150 μg mL^−1) with 6.25 μg mL^−1 Sap9 or 18 μg mL^−1 Sap2 for 2 h at 37° C. The enzymes were then inactivated by heating at 100° C. for 5 min. As controls, each peptide was also incubated with only NaPB buffer. Samples were then stored at −20° C. until use in the antifungal activity assay.
(§6) The intact peptide was then separated from the degradation products using gel electrophoresis and quantified the level of degradation using densitometric analysis of Coomassie-stained gels.
(§7) To amplify differences in antifungal activity due to degradation by the Saps, the concentrations of the Saps was increased by at least two-fold compared to the concentrations used for the gel electrophoresis data in FIGS. 1A-1D (to 6.25 μg mL^−1 for Sap9 and 18 μg mL^−1 for Sap2).

Sap9 [4] = target: T2, Sap9; assay: in vitro; conditions: Candida albicans, isolated enzyme
Description: as §4, §5, §6, §7

Sap2 [5] = assay: 6.25 μg mL^−1 Sap2 in 1 mM NaPB; conditions: C. albicans, 37° C., up to 2 h
Sap2 [6] = assay: 18 μg mL^−1 Sap2 in 1 mM sodium phosphate buffer (NaPB); conditions: C. albicans, 37° C., up to 2 h
Sap9 [7] = assay: 3.13 μg mL^−1 Sap9 in 1 mM NaPB; conditions: C. albicans, 37° C., up to 2 h

T2 sequence (Q59SU1 18-520): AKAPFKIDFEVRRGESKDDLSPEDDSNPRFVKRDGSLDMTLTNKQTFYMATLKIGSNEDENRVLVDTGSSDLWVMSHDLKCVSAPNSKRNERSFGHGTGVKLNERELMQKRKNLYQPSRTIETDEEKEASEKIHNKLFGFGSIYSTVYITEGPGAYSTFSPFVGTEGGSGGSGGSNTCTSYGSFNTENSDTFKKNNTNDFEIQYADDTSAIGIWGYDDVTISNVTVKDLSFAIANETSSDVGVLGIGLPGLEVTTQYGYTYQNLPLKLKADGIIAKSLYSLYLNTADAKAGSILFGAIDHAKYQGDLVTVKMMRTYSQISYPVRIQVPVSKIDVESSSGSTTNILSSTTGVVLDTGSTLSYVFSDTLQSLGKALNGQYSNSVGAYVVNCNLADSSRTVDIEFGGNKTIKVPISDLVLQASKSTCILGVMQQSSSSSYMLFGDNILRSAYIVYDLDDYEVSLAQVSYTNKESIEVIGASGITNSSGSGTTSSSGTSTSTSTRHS
T1 sequence (P0DJ06 57-398): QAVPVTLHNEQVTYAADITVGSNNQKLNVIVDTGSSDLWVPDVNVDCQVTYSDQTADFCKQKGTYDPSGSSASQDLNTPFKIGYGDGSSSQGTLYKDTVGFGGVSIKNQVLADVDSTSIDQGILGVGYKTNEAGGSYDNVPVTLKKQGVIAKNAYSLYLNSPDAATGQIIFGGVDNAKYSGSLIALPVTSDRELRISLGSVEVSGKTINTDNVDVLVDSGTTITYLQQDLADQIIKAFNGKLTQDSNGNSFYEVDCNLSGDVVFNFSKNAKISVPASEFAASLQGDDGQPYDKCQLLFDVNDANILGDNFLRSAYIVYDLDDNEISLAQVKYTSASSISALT

Compound	cleavage at the C-terminal side of K17 by Sap2 (mass spectrometry) (Sap2 [1])	cleavage on the C-terminal side of K17 by Sap9 (mass spectrometry) (Sap9 [2])	mass spectrometry signal of intact peptide versus fragments, Sap9 (Sap9 [2])	degradation by Sap2 (in words) (Sap2 [3])	intact peptide remaining after incubation with higher Sap2 concentration (Sap2 [3])	remaining at 2 h, 150 μg mL^−1 (Sap9 [4]) [%]	cleaved bond (Sap2 [5])	not cleaved (Sap2 [6])	not cleaved (Sap2 [5])	not cleaved (Sap9 [7])
CC(C)C[C@H](NC(=O)[C@H](CCC(=O)O)NC(=O)[C@H](Cc1c[nH]cn1)NC(=O)[C@H](Cc1ccccc1)NC(=O)[C@H](CCCCN)NC(=O)[C@H](CCCNC(=N)N)NC(=O)[C@H](CCCCN)NC(=O)[C@H](Cc1ccc(O)cc1)NC(=O)CNC(=O)[C@H](Cc1c[nH]cn1)NC(=O)[C@H](Cc1c[nH]cn1)NC(=O)[C@H](CCCNC(=N)N)NC(=O)[C@H](CCCCN)NC(=O)[C@H](C)NC(=O)[C@H](Cc1c[nH]cn1)NC(=O)[C@H](CO)NC(=O)[C@@H](N)CC(=O)O)C(=O)N[C@@H](Cc1c[nH]cn1)C(=O)N[C@@H](Cc1c[nH]cn1)C(=O)N[C@@H](CO)C(=O)N[C@@H](Cc1c[nH]cn1)C(=O)N[C@@H](CCCNC(=N)N)C(=O)NCC(=O)N[C@@H](Cc1ccc(O)cc1)C(=O)O [Peptide K17L] (H-DSHAKRHHGYKRKFHELHHSHRGY-OH; N-terminus and C-terminus assumed)	still cleaved	neither K17R nor K17L showed significant cleavage at this site	the most intense signal came from the intact peptide	No detectable degradation	over 70%	77	–	–	–	–
C[C@H](NC(=O)[C@H](Cc1c[nH]cn1)NC(=O)[C@H](CO)NC(=O)[C@@H](N)CC(=O)O)C(=O)N[C@@H](CCCCN)C(=O)N[C@@H](CCCNC(=N)N)C(=O)N[C@@H](Cc1c[nH]cn1)C(=O)N[C@@H](Cc1c[nH]cn1)C(=O)NCC(=O)N[C@@H](Cc1ccc(O)cc1)C(=O)N[C@@H](CCCCN)C(=O)N[C@@H](CCCNC(=N)N)C(=O)N[C@@H](CCCCN)C(=O)N[C@@H](Cc1ccccc1)C(=O)N[C@@H](Cc1c[nH]cn1)C(=O)N[C@@H](CCC(=O)O)C(=O)N[C@@H](CCCNC(=N)N)C(=O)N[C@@H](Cc1c[nH]cn1)C(=O)N[C@@H](Cc1c[nH]cn1)C(=O)N[C@@H](CO)C(=O)N[C@@H](Cc1c[nH]cn1)C(=O)N[C@@H](CCCNC(=N)N)C(=O)NCC(=O)N[C@@H](Cc1ccc(O)cc1)C(=O)O [Peptide K17R] (H-DSHAKRHHGYKRKFHERHHSHRGY-OH; N-terminus and C-terminus assumed)	still cleaved	neither K17R nor K17L showed significant cleavage at this site	the most intense signal came from the intact peptide	No detectable degradation	over 90%	82	–	–	–	–
DSHAKRHHGYKRKFHERHHSHRGY	–	–	–	–	–	–	R17-H18	over 90% remaining	–	–
DSHAKRHHGYRRKFHERHHSHRGY	–	–	–	–	–	–	–	–	no observable degradation	no observable degradation

From patent US10464977B2 (University of Maryland, Baltimore, priority 2016, dated 2019)
